Columns and labels:
CCRF-CEM = test: Proliferation (3H-thymidine) of CCRF-CEM; format: cell-based, human
Description: CCRF-CEM, CEM/C1, CEM/C2, CEM-C7, Jurkat, Loucy, Molt-4, HSB-2, SUP-T1, Hut 78, HH, Hut 102, MO, and H9 T-leukemia and T-lymphoma cell lines were purchased from the American Type Culture Collection (Manassas, Va., USA). All of the cell lines were initially expanded and cryopreserved within one month of receipt. Cells were typically used for 6 months at which time a fresh vial of cryopreserved cells was used. Total T cells from healthy donors were isolated via negative selection followed by positive selection using a CD3+ selection kit (Invitrogen, Carlsbad, Calif.). T cells were isolated from patients with T-ALL bone marrow or peripheral blood samples containing more than 70% leukemia cells using a CD2+ isolation kit (STEMCELL Technologies, Vancouver, Canada). All tissues were collected under institutional IRB-approved protocols and all participants gave written informed assent/consent. For in vitro experiments, T-ALL cells were cultured in AIM-V medium supplemented with 20% human AB serum in the presence of recombinant human stem cell factor (50 ng/mL; Amgen, Thousand Oaks, Calif.), insulin (20 nM; Sigma-Aldrich, St Louis, Mo., USA) and IL-7 (50 ng/mL; R&D Systems, Minneapolis, Minn., USA). In other experiments, protein lysate was collected using the Full Moon Biosystems (Sunnyvale, Calif., USA) buffer prior to protein examination by western blot or protein array.
Cells were cultured in a 96-well plate (Corning Costar, Corning, N.Y., USA) with various concentrations of TLR ligands 1-9, starting at 10 μg/ml, in a final volume of 200 ul. TLR ligands were diluted 2-fold. Cell lines (25-40×10^3/well) were cultured for 54 hours, whereas fresh patient-derived T-ALL cells (200×10^3/well) were cultured for 30 hours prior to adding [^3H]-thymidine for 18 hours. After this time point, cells were harvested with a Packard Filter-Mate-96 cell harvester (Perkin Elmer, Waltham, Mass., USA) and counted on Packard Top Count-NXT (Perkin Elmer, Waltham, Mass., USA). Results were expressed as average counts per minute (cpm). In some experiments CCRF-CEM cells were pre-treated with TLR1-TLR2 ligand (Pam3CysK4; 2.5 ug/ml) for 48 hrs, washed, and then cultured in the presence of varying concentrations of FBS. Forty-eight hours later, proliferation (±SD) was determined by ^3H-thymidine incorporation. Alternatively, apoptosis was measured by flow cytometry after staining cells with Annexin-V (BD Pharmingen, San Diego, Calif., USA) and propidium iodide (Sigma). Cell number was counted under microscopy by staining cells with trypan blue.
The following TLR ligands were purchased from Invivogen (San Diego, Calif., USA): tripalmitoyl-S-(bis(palmitoyloxy)propyl)-Cys-Ser-(Lys)3-Lys (TLR1-2); Poly I:C (TLR3); ultrapure S. Minnesota Lipopolysaccharide (TLR4); S. typhimurium flagellin (TLR5); FSL-1 (TLR2/6); Imiquimod (TLR7); ssRNA40/Lyovec (TLR8); CpG-ODN 2006 (TLR9).

CCRF-CEM cells = test: CCRF-CEM T-ALL numbers in NSG mice (flow cytometry); format: in vivo
Procedure: CCRF-CEM (2×10^6) cells were injected intravenously (i.v.) into female NOD.Cg-Prkdc^scid Il2rg^tm1WJl/SzJ IL2RG (NSG) mice (Jackson Laboratories, Bar Harbor, Me.). […] In some experiments mice were injected i.v. with TLR1-TLR2 ligand (2.5 μg) two days after injecting cells. In other experiments mice were injected intraperitoneally (i.p.) with IRAK-1,-4 inhibitor (10 mg/kg) 3, 6, and 9 days (CCRF-CEM cells) or 7, 10, and 13 days (patient T-ALL cells) after detecting CD7^+ T-ALL cells in circulation. The numbers of T-ALL cells in the bone marrow, spleen, liver, and in circulation were determined by staining cells with anti-human CD7 and/or CD5. To compare T-ALL numbers between groups, 10 μl of calibration microbeads (BD Pharmingen) were added to 50 μl of blood (or marrow or spleen suspensions) and the flow cytometry instrument gates were set to count a constant number of beads.
The therapeutic efficacy of IRAK-1,-4 inhibitor was examined in mice with T-ALL. NSG mice were injected (i.v.) with the human T-ALL cell line CCRF-CEM. Mice were intraperitoneally (i.p.) injected with IRAK-1,-4 inhibitor 3, 6, and 9 days after T-ALL cells were detected in the circulation. The number of T-ALL cells in various tissues was determined four days after the final IRAK-1,-4 inhibitor injection by staining cells with human-specific anti-CD7 antibodies and analyzing by flow cytometry. The number of T-ALL cells was counted after normalization to calibration beads.
The physiological significance of activating TLR-IRAK signaling and T-ALL expansion was examined in vivo. NSG mice harboring CCRF-CEM cells were injected with either TLR1-TLR2 ligand or PBS. One week later the numbers of CD5+CD7+ T-ALL cells in bone marrow and spleen were determined by flow cytometry (FIG. 5, left). To normalize the T-ALL cell count between mice, an equal volume of calibration beads was added to blood samples and the instrument gates were set to count a constant number of beads.

A375 cells = test: Milliplex cytokine/chemokine array; format: cell-based, human
Procedure: FIG. 7. TLR and TLR signaling-related protein expression profiles on melanoma cell lines. (A) The expression levels of TLR1-TLR10 and various TLR-related proteins were examined by Western blot in samples from human melanoma cell lines. (B) The TLR1-TLR2 ligand Pam3CysK4 was added to A375 cells for 48 hrs. Cytokine and chemokine production by was determined using a Milliplex cytokine/chemokine array. (C) IRAK-1,-4 inhibitor or vehicle alone (DMSO) was added to melanoma cells for 48 hrs. The level of phosphorylated and non-phosphorylated p65 subunit of NF-KB was determined by Western blot. (D) Cytokine and chemokine levels in the supernatant A375 cell culture were examined using a Milliplex cytokine/chemokine array 48 hours after adding IRAK-1,-4 inhibitor or DMSO. ANOVA; **P<0.001, *P<0.05.
FIG. 19. Inhibiting IRAK-1/-4 abrogates the effects of TLR1-TLR2 agonist in melanoma cells. A375 cells were cultured in the presence or absence of TLR1-TLR2 ligand Pam3CysK4 (2.5 μg/ml) and in the presence of the IRAK-1/-4 inhibitor (10 μM) or vehicle control DMSO. Cytokine and chemokine production by was determined using a Milliplex cytokine/chemokine array 48 hrs. later.
A375 cells were cultured in the presence or absence of TLR1-TLR2 ligand Pam3CysK4 (2.5 μg/ml) and in the presence of the IRAK-1,-4 inhibitor (10 μM) or vehicle control DMSO. (FIG. 19). Therefore, activation of IRAK-1,-4 signaling on melanoma cells in vivo might contribute to cancer progression by inducing the expression of various chemokines and cytokines beneficial to cancer cell survival, division, and/or angiogenesis.

[1] = TLR1-TLR2 ligand 2.5 μg i.v. vs PBS, p<0.05, FIG. 5
[2] = 10 mg/kg i.p. days 3, 6, 9, FIG. 17
[3] = 10 mg/kg i.p. days 3, 6, 9, vs DMSO or untreated, p<0.05

| Compound | Proliferative effects of TLR ligands (CCRF-CEM; 3H-thymidine uptake, 72 h) | concentration at which cells proliferated in response to the ligand (CCRF-CEM; FIG. 1A) [µg/mL] | effect on proliferation (in words) (CCRF-CEM; FIG. 1A) | TLR ligand concentration in parentheses below the symbol (CCRF-CEM; no unit in table (μg/ml)) | T-ALL cell number (CD5+CD7+) in the bone marrow (CCRF-CEM cells; [1]) | T-ALL cell number (CD5+CD7+) in the spleen (CCRF-CEM cells; [1]) | changes in levels of MCP-I, IL-6 and fractalkine (A375 cells; 48 hrs, FIG. 7B) | levels of GM-CSF and IP-10 (A375 cells; 48 hrs, p<0.001, FIG. 7B) | levels of cytokines and chemokines including VEGF, CXCLI and IL-8 (A375 cells; 48 hrs, p<0.05, FIG. 7B) | reduction of proliferation of TLR1-TLR2-stimulated cells (CCRF-CEM; IRAK-1,-4 inhibitor 5 μM with TLR1-TLR2 agonist 1 μg/ml, 48 h, FIG. 3A) [%] | lowest concentration effective in reducing proliferation (CCRF-CEM; concentration-dependent, 48 h, FIG. 3B) [µM] | T-ALL cell numbers in the liver (CCRF-CEM cells; [2]) | T-ALL cell numbers in the spleen (CCRF-CEM cells; [2]) | number of CD7+ T-ALL cells in circulation (CCRF-CEM cells; [3]) | number of CD7+ T-ALL cells in the bone marrow (CCRF-CEM cells; [3]) | production of VEGF, CXCLI, MCP 1, PDGF-A and FGF-2 (A375 cells; 48 hrs, absence of TLR agonists, p<0.05, FIG. 7D) | cytokine/chemokine effects of TLR1-TLR2 agonist (A375 cells; IRAK-1,-4 inhibitor 10 μM with Pam3CysK4 2.5 μg/ml, FIG. 19) |
| --- | --- | --- | --- | --- | --- | --- | --- | --- | --- | --- | --- | --- | --- | --- | --- | --- | --- |
| tripalmitoyl-S-(bis(palmitoyloxy)propyl)-Cys-Ser-(Lys)3-Lys [Pam3Cysk4] | + (enhanced proliferation by 25% or greater) | 1.2 | proliferated | (1.2) | significantly augmented | significantly augmented | not statistically significant | significantly increased | significantly augmented |  |  |  |  |  |  |  |  |
| O=C(Nc1nc2ccccc2n1CCN1CCOCC1)c1cccc([N+](=O)[O-])c1 [IRAK-1,-4 inhibitor] |  |  |  |  |  |  |  |  |  | 72 | 1.5 | only moderately reduced | only moderately reduced | significantly reduced | significantly reduced | significantly reduced | decreased the effects of TLR1-TLR2 agonist |

Reference: patent publication US9464326B2, “Total and phosphorylated IL-1 receptor-associated kinase-1 and IL-1 receptor-associated kinase-4 as a biomarker for cancer progression and chemotherapy resistance” (University of Maryland, Baltimore, priority 2012, dated 2016)
